In patent publication US9145399B2, “Substituted bicyclic triazole derivatives as gamma secretase modulators” (Janssen Pharmaceuticals, Inc., priority 2010, dated 2015):

Assays:
Aβtotal [1] = assay: Screening for γ-secretase-modulating activity in SKNBE2 cells carrying APP 695 wild type: Aβtotal in cell supernatant (Alphalisa); assay type: cell-based; conditions: overnight incubation
Procedure, shortened: (§1)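 SKNBE2 cells expressing wild-type APP695 were incubated overnight at 37° C with test compound at several concentrations. Aβ42 and Aβtotal in supernatant were measured by AlphaLISA sandwich immunoassays. IC50 came from 4-parameter non-linear fits of percent of compound-free control versus log concentration.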

Aβ42 [2] = assay: Screening for γ-secretase-modulating activity in SKNBE2 cells carrying APP 695 wild type: Aβ42 in cell supernatant (Alphalisa); assay type: cell-based; conditions: overnight incubation
Procedure, shortened: as §1

Aβ42 [3] = assay: In vivo efficacy: Aβ42 lowering in brain of non-transgenic mice after single oral dose (ELISA); design: species or system mouse; conditions: dose 30 mg/kg oral dosing, soluble brain fraction, animals sacrificed after 4 h, untreated animals (Ctrl) set at 100; for response vs control in vivo at 30 mg/kg: Mus musculus, read-out: Aβ42 (% vs Ctrl) _Mean
Excerpt: (§2) To determine whether acute administration of an Aβ42 lowering agent would reduce Aβ42 levels in vivo, non-transgenic rodents, e.g. mice or rats were used. Animals treated with the Aβ42 lowering agent were examined and compared to those untreated or treated with vehicle and brain levels of soluble Aβ42 and total Aβ were quantitated by standard techniques, for example, using ELISA. Treatment periods varied from hours (h) to days and were adjusted based on the results of the Aβ42 lowering once a time course of onset of effect could be established.
(§3) A typical protocol for measuring Aβ42 lowering in vivo is shown but it is only one of many variations that could be used to optimize the levels of detectable Aβ. For example, Aβ42 lowering compounds were formulated in 20% of Captisol® (a sulfobutyl ether of β-cyclodextrin) in water or 20% hydroxypropyl β cyclodextrin. The Aβ42 lowering agents were administered as a single oral dose or by any acceptable route of administration to overnight fasted animals. After 4 h, the animals were sacrificed and Aβ42 levels were analysed.
(§4) Blood was collected by decapitation and exsanguinations in EDTA-treated collection tubes. Blood was centrifuged at 1900 g for 10 minutes (min) at 4° C. and the plasma recovered and flash frozen for later analysis. The brain was removed from the cranium and hindbrain. The cerebellum was removed and the left and right hemisphere were separated. The left hemisphere was stored at −18° C. for quantitative analysis of test compound levels. The right hemisphere was rinsed with phosphate-buffered saline (PBS) buffer and immediately frozen on dry ice and stored at −80° C. until homogenization for biochemical assays.
(§5) Mouse brains from non-transgenic animals were resuspended in 8 volumes of 0.4% DEA (diethylamine)/50 mM NaCl containing protease inhibitors (Roche-11873580001 or 04693159001) per gram of tissue, e.g. for 0.158 g brain, add 1.264 ml of 0.4% DEA. All samples were homogenized in the FastPrep-24 system (MP Biomedicals) using lysing matrix D (MPBio #6913-100) at 6 m/s for 20 seconds. Homogenates were centrifuged at 221.300×g for 50 min. The resulting high speed supernatants were then transferred to fresh eppendorf tubes. Nine parts of supernatant were neutralized with 1 part 0.5 M Tris-HCl pH 6.8 and used to quantify Aβtotal and Aβ42.
(§6) To quantify the amount of Aβtotal and Aβ42 in the soluble fraction of the brain homogenates, Enzyme-Linked-Immunosorbent-Assays were used. Briefly, the standards (a dilution of synthetic Aβ1-40 and Aβ1-42, Bachem) were prepared in 1.5 ml Eppendorf tube in Ultraculture, with final concentrations ranging from 10000 to 0.3 pg/ml. The samples and standards were co-incubated with HRPO-labelled N-terminal antibody for Aβ42 detection and with the biotinylated mid-domain antibody 4G8 for Aβtotal detection. 50 μl of conjugate/sample or conjugate/standards mixtures were then added to the antibody-coated plate (the capture antibodies selectively recognize the C-terminal end of Aβ42, antibody JRF/cAβ42/26, for Aβ42 detection and the N-terminus of Aβ, antibody JRF/rAβ/2, for Aβtotal detection). The plate was allowed to incubate overnight at 4° C. in order to allow formation of the antibody-amyloid complex. Following this incubation and subsequent wash steps the ELISA for Aβ42 quantification was finished by addition of Quanta Blu fluorogenic peroxidase substrate according to the manufacturer's instructions (Pierce Corp., Rockford, Il). A reading was performed after 10 to 15 min (excitation 320 nm/emission 420 nm).
In this model at least 20% Aβ42 lowering compared to untreated animals would be advantageous.
The results are shown in Table 4 (dose 30 mg/kg oral dosing) (value for untreated animals as control (Ctrl) was set at 100): […]

Aβtotal [4] = assay: In vivo efficacy: Aβtotal in brain of non-transgenic mice after single oral dose (ELISA); design: species or system mouse; conditions: dose 30 mg/kg oral dosing, soluble brain fraction, animals sacrificed after 4 h, untreated animals (Ctrl) set at 100; for response vs control in vivo at 30 mg/kg: Mus musculus, read-out: Aβtotal (% vs Ctrl)_Mean
Excerpt: as §2, §3, §4, §5, §6
For Aβtotal detection, a Streptavidine-Peroxidase-Conjugate was added, followed 60 min later by an additional wash step and addition of Quanta Blu fluorogenic peroxidase substrate according to the manufacturer's instructions (Pierce Corp., Rockford, Ill). A reading was performed after 10 to 15 min (excitation 320 nm/emission 420 nm). […]

[5] = Homo sapiens, SKNBE2, SKNBE2 cells carrying APP 695 wild type

| Structure (SMILES) | IC50 (Aβtotal [1]; Homo sapiens) | IC50 (Aβ42 [2]; [5]) | melting point | IC50 (Aβtotal [1]) | IC50 (Aβ42 [2]; SKNBE2 cells carrying APP 695 wild type) | response vs control in vivo at 30 mg/kg (Aβ42 [3]) | response vs control in vivo at 30 mg/kg (Aβtotal [4]) | Aβ42 (% vs Ctrl) _Mean (Aβ42 [3]) | Aβtotal (% vs Ctrl)_Mean (Aβtotal [4]) |
| --- | --- | --- | --- | --- | --- | --- | --- | --- | --- |
| Cc1cc(-c2ccc(Nc3nc4n(n3)CCCC4c3ccc(F)cc3C)cc2)ccn1 (stereo not shown) [Compound 90, 8-(4-fluoro-2-methylphenyl)-5,6,7,8-tetrahydro-N-[4-(2-methyl-4-pyridinyl)phenyl]-[1,2,4]triazolo[1,5-a]pyridin-2-amine] | > 10000 nM | 56 nM | 153.9 °C | – | – | 38% | 83% | – | – |
| FC(F)(F)c1ccccc1C1CCCn2nc(Nc3ccc(-c4cccnc4)cc3)nc21 (stereo not shown) [Compound 46, 5,6,7,8-tetrahydro-N-[4-(3-pyridinyl)phenyl]-8-[2-(trifluoromethyl)phenyl]-[1,2,4]triazolo[1,5-a]pyridin-2-amine] | > 10000 nM | 5250 nM | – | – | – | 61% | 98% | – | – |
| COc1cc(Nc2nc3n(n2)C(c2ccccc2C(F)(F)F)CCC3)ccc1-c1ccnc(C)c1 (stereo not shown) [Compound 52, 5,6,7,8-tetrahydro-N-[3-methoxy-4-(2-methyl-4-pyridinyl)phenyl]-5-[2-(trifluoromethyl)phenyl]-[1,2,4]triazolo[1,5-a]pyridin-2-amine 1.8 HCl3H2O] | ≥ 10000 nM | 182 nM | – | – | – | 45% | 112% | – | – |
| Cc1cc(-c2ccc(Nc3nc4n(n3)CCCC4c3ccccc3C(F)(F)F)cc2)ccn1 (stereo not shown) [Compound 42, 5,6,7,8-tetrahydro-N-[4-(2-methyl-4-pyridinyl)phenyl]-8-[2-(trifluoromethyl)phenyl]-[1,2,4]triazolo[1,5-a]pyridin-2-amine] | > 10000 nM | 23 nM | – | – | – | 58% | 83% | – | – |
| COc1cc(Nc2nc3n(n2)CCOC3c2ccccc2C(F)(F)F)ccc1-c1ccnc(C)c1 (stereo not shown) [Compound 65, 5,6-dihydro-N-[3-methoxy-4-(2-methyl-4-pyridinyl)phenyl]-8-[2-(trifluoromethyl)phenyl]-8H-[1,2,4]triazolo[5,1-c][1,4]oxazin-2-amine] | > 10000 nM | 52 nM | – | – | – | 64% | 101% | – | – |
| COc1ccc(C2CCCn3nc(Nc4ccc(-c5ccnc(C)c5)cc4)nc32)cc1F.Cl.O (stereo not shown) [Compound 105, 8-(3-fluoro-4-methoxyphenyl)-5,6,7,8-tetrahydro-N-[4-(2-methyl-4-pyridinyl)phenyl]-[1,2,4]triazolo[1,5-a]pyridin-2-amine.1.6HCl.2.4H2O] | – | – | – | > 10000 nM | 56 nM | – | – | 51 % vs Ctrl | 99 % vs Ctrl |
| COc1cc(Nc2nc3n(n2)CCN(C(C)=O)C3c2ccccc2C(F)(F)F)ccc1-n1cnc(C)c1 (stereo not shown) [Compound 14, 7-acetyl-5,6,7,8-tetrahydro-N-[3-methoxy-4-(4-methyl-1H-imidazol-1-yl)phenyl]-8-[2-(trifluoromethyl)phenyl]-[1,2,4]triazolo[1,5-a]pyrazin-2-amine] | > 10000 nM | 66 nM | – | – | – | 101% | 119% | – | – |
| COc1cc(Nc2nc3n(n2)CCCC3c2ccccc2C(F)(F)F)ccc1-n1cnc(C)n1 (stereo not shown) [Compound 15, 5,6,7,8-tetrahydro-N-[3-methoxy-4-(3-methyl-1H-1,2,4-triazol-1-yl)phenyl]-8-[2-(trifluoromethyl)phenyl]-[1,2,4]triazolo[1,5-a]pyridin-2-amine] | > 10000 nM | 79 nM | 233.2 °C | – | – | – | – | – | – |
| COc1cc(Nc2nc3c(-c4ccccc4C(F)(F)F)cccn3n2)ccc1-c1ocnc1C [Compound 23, N-[3-methoxy-4-(4-methyl-5-oxazolyl)phenyl]-8-[2-(trifluoromethyl)phenyl]-[1,2,4]triazolo[1,5-a]pyridin-2-amine] | > 10000 nM | 13 nM | 220.3 °C | – | – | – | – | – | – |
| COc1cc(Nc2nc3c(-c4ccccc4Cl)cccn3n2)ccc1-n1cnc(C)c1 [Compound 7, 8-(2-chlorophenyl)-N-[3-methoxy-4-(4-methyl-1H-imidazol-1-yl)phenyl]-[1,2,4]triazolo[1,5-a]pyridin-2-amine] | > 10000 nM | 7 nM | 235 °C | – | – | – | – | – | – |

The next lines start with results.

| IC50 (Aβtotal [1]; Homo sapiens) | IC50 (Aβ42 [2]; [5]) | melting point | IC50 (Aβtotal [1]) | IC50 (Aβ42 [2]; SKNBE2 cells carrying APP 695 wild type) | Structure (SMILES) | response vs control in vivo at 30 mg/kg (Aβ42 [3]) | response vs control in vivo at 30 mg/kg (Aβtotal [4]) | Aβ42 (% vs Ctrl) _Mean (Aβ42 [3]) | Aβtotal (% vs Ctrl)_Mean (Aβtotal [4]) |
| --- | --- | --- | --- | --- | --- | --- | --- | --- | --- |
| 9120 nM | 35 nM | – | – | – | COc1cc(Nc2nc3n(n2)CCCC3c2ccccc2Cl)ccc1-c1ccnc(C)c1 (racemic) [Compound 66, 8-(2-chlorophenyl)-5,6,7,8-tetrahydro-N-[3-methoxy-4-(2-methyl-4-pyridinyl)phenyl]-[1,2,4]triazolo[1,5-a]pyridin-2-amine] | 54% | 92% | – | – |
| 5750 nM | 13 nM | 187.9 °C | – | – | COc1cc(Nc2nc3n(n2)CCCC3c2ccccc2C(F)(F)F)ccc1-n1cnc(C)c1 (stereo not shown) [Compound 31, 5,6,7,8-tetrahydro-N-[3-methoxy-4-(4-methyl-1H-imidazol-1-yl)phenyl]-8-[2-(trifluoromethyl)phenyl]-[1,2,4]triazolo[1,5-a]pyridin-2-amine] | 83% | 96% | – | – |
| 7080 nM | 16 nM | – | – | – | COc1cc(Nc2nc3n(n2)CCCC3c2ccccc2C(F)(F)F)ccc1-c1ccnc(C)c1 (stereo not shown) [Compound 43, 5,6,7,8-tetrahydro-N-[3-methoxy-4-(2-methyl-4-pyridinyl)phenyl]-8-[2-(trifluoromethyl)phenyl]-[1,2,4]triazolo[1,5-a]pyridin-2-amine] | 71% | 87% | – | – |
| 7760 nM | 9 nM | – | – | – | COc1cc(Nc2nc3n(n2)CCN(C)C3c2ccccc2C(F)(F)F)ccc1-n1cnc(C)c1 (stereo not shown) [Compound 13, 5,6,7,8-tetrahydro-N-[3-methoxy-4-(4-methyl-1H-imidazol-1-yl)phenyl]-7-methyl-8-[2-(trifluoromethyl)phenyl]-[1,2,4]triazolo[1,5-a]pyrazin-2-amine] | 93% | 100% | – | – |
| 7410 nM | 7 nM | 238.4 °C | – | – | COc1cc(Nc2nc3c(-c4ccc(F)cc4C(F)(F)F)cccn3n2)ccc1-n1cnc(C)c1 [Compound 6, 8-[4-fluoro-2-(trifluoromethyl)phenyl]-N-[3-methoxy-4-(4-methyl-1H-imidazol-1-yl)phenyl]-[1,2,4]triazolo[1,5-a]pyridin-2-amine] | – | – | – | – |
| 7760 nM | 16 nM | 207.1 °C | – | – | COc1cc(Nc2nc3n(n2)CCCC3c2ccc(F)cc2)ccc1-c1ccnc(C)c1 (stereo not shown) [Compound 1, 8-(4-fluorophenyl)-5,6,7,8-tetrahydro-N-[3-methoxy-4-(2-methyl-4-pyridinyl)phenyl]-[1,2,4]triazolo[1,5-a]pyridin-2-amine] | – | – | – | – |
